Common to all, as to type: in vivo
For experiment [1], the system named is mouse bladder cancer cell MB49. As to the kind of experiment: near-infrared fluorescence observation of bladder after tail vein administration, MB49 bladder cancer mouse model. How it is done: Two bladder cancer mouse models (weight: about 20 g), having mouse bladder cancer cell MB49 transplanted in the bladder mucosa, and then grown for 3 weeks or 4 weeks, were used. To the tail vein of each of the mice, 0.2 mL of a saline containing the compound III (concentration of the compound III: 0.075 mg/mL) was administered, and after 1 day, the mouse was subjected to laparotomy under anesthesia by subcutaneous administration of ketamine (75 mg/kg) and medetomidine (1 mg/kg), and near-infrared fluorescence observation was performed with a near-infrared fluorescence imaging device (pde-neo, manufactured by Hamamatsu Photonics K.K., excitation wavelength: 760 nm, detection wavelength: fluorescence of 800 nm or more, the same applies hereinafter) (FIG. 1, right: near-infrared fluorescence image).
As a comparative example, a saline containing the compound III was administered to the tail vein of a normal mouse (weight: about 20 g), and after 1 day, the mouse was subjected to laparotomy under anesthesia by subcutaneous administration of ketamine (75 mg/kg) and medetomidine (1 mg/kg), and near-infrared fluorescence observation was performed with a near-infrared fluorescence imaging device (pde-neo, manufactured by Hamamatsu Photonics K.K.) (FIG. 2).
Two bladder cancer model mice (weight: about 20 g), having mouse bladder cancer cell MB49 transplanted in the bladder mucosa, and then grown for 3 weeks or 4 weeks, were used. To the tail vein of each of the mice, 0.2 mL of a saline containing the compound III (concentration of the compound III: 0.075 mg/mL) was administered. One day after the administration, the mouse was subjected to laparotomy under anesthesia by subcutaneous administration of ketamine (75 mg/kg) and medetomidine (1 mg/kg), and under observation of near-infrared fluorescence with a near-infrared fluorescence imaging device (pde-neo, manufactured by Hamamatsu Photonics K.K.), a cancer tissue site emitting near-infrared fluorescence was taken out for near-infrared fluorescence observation (FIG. 5, right: near-infrared fluorescence image). […]

The test system of the next experiment is mouse tumor cell 4T1. The experiment can be described thus: near-infrared fluorescence imaging after administration into tumor, 4T1 breast cancer model. The text has this:
A syngeneic tumor transplanted mouse model was created as follows referring to “Gan-Shikkan Model no Sakusei to Riyo (Cancer-Creation and Use of Disease Model)” (Takuro Nakamura, LIC, 2012). • (Breast Cancer) A tumor model was created by breeding a normal Balb/c mouse (weight: about 20 g to 30 g) for 14 days with mouse tumor cell 4T1 subcutaneously administered thereto. • (Colorectal Cancer) A tumor model was created by breeding a normal Balb/c mouse (weight: about 20 g to 30 g) for 14 days with CT26 (colorectal cancer cell) subcutaneously administered thereto. • (Skin Cancer) A tumor model was created by breeding a C57BL/6 mouse (weight: about 15 g to 20 g) for 14 days with B16F1 (skin cancer cell) subcutaneously administered thereto.
Subsequently, to the tumor of each of the model mice, 0.02 to 0.05 mL of a saline containing the compound III or ICG (concentration of the compound III or ICG: 1 mg/mL) was administered, and fluorescence imaging was performed transdermally with a near-infrared fluorescence camera (Fluobeam, manufactured by Fluoptics, http://www.solve-net.com/info/wp-content/uploads/downloads/2013/12/Fluobeam.pdf) (excitation wavelength: 780 nm, detection wavelength: 800 nm or more).

The subject of experiment [2] is Human stomach cancer cell MKN45. As to the kind of experiment: near-infrared fluorescence observation, human stomach cancer cell subcutaneous transplant mouse. The settings on record: nude mouse, tail vein 120 nmol/kg, observed from above the skin. From the text:
Human stomach cancer cell MKN45 (1×10^7 cells, purchased from JCRB cell bank of National Institutes of Biomedical Innovation, Health and Nutrition) was subcutaneously transplanted into the right or left side, or the center of the back in the base of the foreleg of a nude mouse (BALB/cSlc-nu, SPF, male, 5 weeks old), and the resultant mouse was bred for 10 days to create a mouse having a stomach cancer tissue grown therein. After anesthetizing the mouse (weight: about 20 g) by subcutaneous administration of ketamine (75 mg/kg) and medetomidine (1 mg/kg), the compound III (120 nmol/kg weight) was administered through the tail vein, and near-infrared fluorescence was observed from above the skin on the back side with a near-infrared fluorescence imaging device (pde-neo, manufactured by Hamamatsu Photonics K.K.).

The subject of experiment [3] is human glioblastoma cells U-251MG. The experiment can be described thus: near-infrared fluorescence imaging after topical administration into tumor, human glioblastoma subcutaneous transplant model. The settings on record: U-251MG glioblastoma, SCID mouse, 0.02 to 0.1 mL of 1 mg/mL, 1 hour after administration. As for the experimental part:
A human cancer cell transplant model mouse was created as follows: • (Head and neck/tongue cancer) To immunodeficient SCID mice (weight: 17 g to 23 g), about 10^6 human tongue cancer cells CAL27 (purchased from American Type Culture Collection: ATCC) were subcutaneously administered, and the resultant mice were grown for 49 days to create tumor models. • (Brain cancer/neuroblastoma) To immunodeficient SCID mice (weight: 17 g to 23 g), about 10^6 human neuroblastoma cells SH-SY5Y (purchased from ATCC) were subcutaneously administered, and the resultant mice were grown for 90 days to create tumor models. • (Brain cancer/glioblastoma) To immunodeficient SCID mice (weight: 17 g to 23 g), about 10^6 human glioblastoma cells U-251MG (obtained from European Collection of Authenticated Cell Cultures) were subcutaneously administered, and the resultant mice were grown for 90 days to create tumor models.
Subsequently, to the tumor of each of the mouse models, 0.02 to 0.1 mL of a saline containing the compound III (concentration of the compound III: 1 mg/mL) was topically administered, and fluorescence imaging was conducted transdermally with a near-infrared fluorescence camera (Fluobeam, manufactured by Fluoptics) (excitation wavelength: 780 nm, detection wavelength: 800 nm or more).

Turning to `COC1=C(/C=C/C2=[N+](CCC(=O)NCCCO[C@H]3[C@H]4O[C@H]5[C@H](O)[C@@H](O)[C@@H](O[C@H]6[C@H](O)[C@@H](O)[C@@H](O[C@H]7[C@H](O)[C@@H](O)[C@@H](O[C@H]8[C@H](O)[C@@H](O)[C@@H](O[C@H]9[C@H](O)[C@@H](O)[C@@H](O[C@H]%10[C@H](O)[C@@H](O)[C@@H](O[C@@H]([C@@H]3O)[C@@H](CO)O4)O[C@@H]%10CO)O[C@@H]9CO)O[C@@H]8CO)O[C@@H]7CO)O[C@@H]6CO)O[C@@H]5CO)c3ccc4ccccc4c3C2(C)C)CCC/C1=C\C=C1\N(CCC(=O)NCCCO[C@H]2[C@H]3O[C@H]4[C@H](O)[C@@H](O)[C@@H](O[C@H]5[C@H](O)[C@@H](O)[C@@H](O[C@H]6[C@H](O)[C@@H](O)[C@@H](O[C@H]7[C@H](O)[C@@H](O)[C@@H](O[C@H]8[C@H](O)[C@@H](O)[C@@H](O[C@H]9[C@H](O)[C@@H](O)[C@@H](O[C@@H]([C@@H]2O)[C@@H](CO)O3)O[C@@H]9CO)O[C@@H]8CO)O[C@@H]7CO)O[C@@H]6CO)O[C@@H]5CO)O[C@@H]4CO)c2ccc3ccccc3c2C1(C)C.[Cl-]` [compound III, 3-(3-{[3-(cyclomaltoheptaose-21-O-yl)propyl]amino}-3-oxopropyl)-2-{(1E)-2-[(3E)-3-{(2E)-2-[3-(3-{[3-(cyclomaltoheptaose-21-O-yl)propyl]amino}-3-oxopropyl)-1,1-dimethyl-1,3-dihydro-2H-benzo[e]indol-2-ylidene]ethylidene}-2-methoxycyclohexa-1-en-1-yl]ethene-1-yl}-1,1-dimethyl-1H-benzo[e]indol-3-ium chloride], in experiment [1] (MB49 bladder cancer mouse model, 0.2 mL saline 0.075 mg/mL, 1 day after administration), the “excision of tumor tissue with fluorescence emitted from the cancer tissue used as a guide” value is listed as “could be appropriately excised”. Besides, the “near-infrared fluorescence in cancer tissue of the bladder” value in experiment [1] (MB49 bladder cancer mouse model, 0.2 mL saline 0.075 mg/mL, after 1 day, laparotomy) is listed as “specifically observed”. Further, in experiment [1] (normal mouse, after 1 day, laparotomy), the “near-infrared fluorescence of normal tissue (bladder)” value is given as “did not emit near-infrared fluorescence”. Moreover, in the experiment on mouse tumor cell 4T1 (4T1 breast cancer model, 0.02 to 0.05 mL of 1 mg/mL saline, transdermal imaging), the “retention in tumor (fluorescence imaging)” value is on record as “retained in the tumor”. Further, in the experiment with mouse tumor cell 4T1 (4T1 tumor, 1 mg/mL saline, fluorescence imaging, incl. during tumor excision operation), the “drawing of tumor outline / exudation to surrounding tissues” value is listed as “did not exude to surrounding tissues but the outline of the tumor was drawn”. In experiment [2], the “near-infrared fluorescence of stomach cancer tissue versus normal tissue” value was “stronger in a cancer tissue than in a normal tissue”. In experiment [3], the “retention inside the tumor (fluorescence imaging)” value is reported as “retained inside the tumor”.

The values above are taken from patent publication US20240181087A1, “COMPOSITION FOR CONTRAST IMAGING OF CANCER” (ASTELLAS PHARMA INC., priority 2021, published 2024).
